Test results published in ChEMBL document CHEMBL3232814, “Synthesis and anticancer structure activity relationship investigation of cationic anthraquinone analogs” (2014).

Legend:
Format in all cases: functional
NCI-H23 = assay: Growth inhibition of human NCI-H23 cells; conditions: for CC50: read-out: LC50 (the source's name)
SW-620 = assay: Growth inhibition of human SW620 cells; conditions: for CC50: read-out: LC50 (the source's name)
[1] = Growth inhibition of human HCC2998 cells; conditions: for GI50: HCC 2998; for CC50: HCC 2998, read-out: LC50 (the source's name)
NCI-H226 = assay: Growth inhibition of human NCI-H226 cells; conditions: for CC50: read-out: LC50 (the source's name)
SK-MEL-28 = assay: Growth inhibition of human SK-MEL-28 cells; conditions: for CC50: read-out: LC50 (the source's name)
HOP-62 = assay: Growth inhibition of human HOP62 cells; conditions: for CC50: read-out: LC50 (the source's name)
HT-29 = assay: Growth inhibition of human HT-29 cells
[2] = Growth inhibition of human HCT15 cells; conditions: for GI50: HCT-15
NCI-H460 = assay: Growth inhibition of human NCI-H460 cells; conditions: for CC50: read-out: LC50 (the source's name)
SK-MEL-5 = assay: Growth inhibition of human SK-MEL-5 cells
SNB-19 = assay: Growth inhibition of human SNB19 cells
A549 = assay: Growth inhibition of human A549 cells; conditions: for CC50: read-out: LC50 (the source's name)
[3] = Growth inhibition of human LOXIMVI cells; conditions: LOX IMVI; for CC50: read-out: LC50 (the source's name)
[4] = Growth inhibition of human NCI60 cells assessed as cell growth; design: concentration or dose not given beside the values
MDA-MB-435 = assay: Growth inhibition of human MDA-MB-435 cells; conditions: for CC50: read-out: LC50 (the source's name)
HCT-116 = assay: Growth inhibition of human HCT116 cells; conditions: for CC50: read-out: LC50 (the source's name)
[5] = Growth inhibition of human HOP92 cells; conditions: for GI50: HOP-92; for CC50: HOP-92, read-out: LC50 (the source's name)
[6] = Growth inhibition of human SF295 cells; conditions: SF-295
[7] = Growth inhibition of human SF539 cells; conditions: for GI50: SF-539; for CC50: SF-539, read-out: LC50 (the source's name)
U-251 = assay: Growth inhibition of human U251 cells
NCI-H522 = assay: Growth inhibition of human NCI-H522 cells; conditions: for CC50: read-out: LC50 (the source's name)
COLO 205 = assay: Growth inhibition of human COLO205 cells; conditions: for CC50: read-out: LC50 (the source's name)
[8] = Growth inhibition of human UACC62 cells; conditions: for GI50: UACC-62; for CC50: UACC-62, read-out: LC50 (the source's name)
KM12 = assay: Growth inhibition of human KM12 cells; conditions: for CC50: read-out: LC50 (the source's name)
SF-268 = assay: Growth inhibition of human SF268 cells; conditions: for CC50: read-out: LC50 (the source's name)
M14 = assay: Growth inhibition of human M14 cells; conditions: for CC50: read-out: LC50 (the source's name)
NCI-H322M = assay: Growth inhibition of human NCI-H322M cells; conditions: for CC50: read-out: LC50 (the source's name)
SK-MEL-2 = assay: Growth inhibition of human SK-MEL-2 cells; conditions: for CC50: read-out: LC50 (the source's name)
[9] = Growth inhibition of human UACC257 cells; conditions: for GI50: UACC-257; for CC50: UACC-257, read-out: LC50 (the source's name)
Staphylococcus aureus = assay: Antimicrobial activity against Staphylococcus aureus ATCC 25923 after 12 to 18 hrs by 2-fold serial dilution method
Malme-3M = assay: Growth inhibition of human MALME-3M cells; conditions: for CC50: read-out: LC50 (the source's name)
SNB-75 = assay: Growth inhibition of human SNB75 cells; conditions: for CC50: read-out: LC50 (the source's name)

SMILES: COc1cc(OC)cc(-n2n[n+](C)c3c2C(=O)c2ccccc2C3=O)c1.O=S(=O)([O-])C(F)(F)F
- GI50 (NCI-H23): 1260 nM
- CC50 (NCI-H23): > 100000 nM
- GI50 (SW-620): 3000 nM
- CC50 (SW-620): > 100000 nM
- GI50 [1]: 1500 nM
- CC50 [1]: 8990 nM
- GI50 (NCI-H226): 1740 nM
- CC50 (NCI-H226): 7760 nM
- GI50 (SK-MEL-28): 3200 nM
- CC50 (SK-MEL-28): 43300 nM
- GI50 (HOP-62): 1510 nM
- CC50 (HOP-62): 6080 nM
- GI50 (HT-29): 1100 nM
- LC50 (HT-29): > 100000 nM
- GI50 [2]: 1610 nM
- GI50 (NCI-H460): 560 nM
- CC50 (NCI-H460): 8010 nM
- GI50 (SK-MEL-5): 180 nM
- LC50 (lethal concentration 50) (SK-MEL-5): 660 nM
- GI50 (SNB-19): 1250 nM
- LC50 (SNB-19): 5100 nM
- GI50 (A549): 780 nM
- CC50 (A549): 8810 nM
- GI50 [3]: 1710 nM
- CC50 [3]: 7090 nM
- Activity [4]: 23.23%
- GI50 (MDA-MB-435): 310 nM
- GI50 (HCT-116): 2660 nM
- CC50 (HCT-116): 48600 nM
- GI50 [5]: 7070 nM
- CC50 [5]: > 100000 nM
- GI50 [6]: 180 nM
- LC50 (concentration killing 50% of cells) [6]: 610 nM
- GI50 [7]: 1640 nM
- CC50 [7]: 5600 nM
- GI50 (U-251): 1530 nM
- LC50 (U-251): 5540 nM
- GI50 (NCI-H522): 2540 nM
- CC50 (NCI-H522): 29200 nM
- GI50 (COLO 205): 400 nM
- CC50 (COLO 205): 5350 nM
- GI50 [8]: 1410 nM
- CC50 [8]: 5890 nM
- GI50 (KM12): 3110 nM
- CC50 (KM12): 42900 nM
- GI50 (SF-268): 3680 nM
- CC50 (SF-268): > 100000 nM
- GI50 (M14): 500 nM
- CC50 (M14): 4370 nM
- GI50 (NCI-H322M): 360 nM
- CC50 (NCI-H322M): 3680 nM
- GI50 (SK-MEL-2): 2080 nM
- CC50 (SK-MEL-2): 12400 nM
- GI50 [9]: 1200 nM
- CC50 [9]: 5300 nM
- MIC (Staphylococcus aureus): 16 µg/mL
- GI50 (Malme-3M): 410 nM
- CC50 (Malme-3M): 3720 nM
- GI50 (SNB-75): 1630 nM
- CC50 (SNB-75): 5470 nM

SMILES: COc1cc(-n2n[n+](C)c3c2C(=O)c2ccccc2C3=O)cc(OC)c1OC.O=S(=O)([O-])C(F)(F)F
- GI50 (NCI-H23): 1940 nM
- GI50 (SW-620): 1990 nM
- CC50 (SW-620): > 100000 nM
- GI50 [1]: 1630 nM
- CC50 [1]: 8220 nM
- GI50 (NCI-H226): 1800 nM
- CC50 (NCI-H226): 18000 nM
- GI50 (SK-MEL-28): 1370 nM
- CC50 (SK-MEL-28): 7110 nM
- GI50 (HOP-62): 1310 nM
- CC50 (HOP-62): 7220 nM
- GI50 (HT-29): 340 nM
- LC50 (HT-29): > 100000 nM
- GI50 [2]: 1350 nM
- GI50 (NCI-H460): 790 nM
- CC50 (NCI-H460): > 100000 nM
- GI50 (SK-MEL-5): 240 nM
- LC50 (lethal concentration 50) (SK-MEL-5): 2320 nM
- GI50 (SNB-19): 1400 nM
- LC50 (SNB-19): 6990 nM
- GI50 (A549): 1680 nM
- CC50 (A549): > 100000 nM
- GI50 [3]: 1190 nM
- CC50 [3]: > 100000 nM
- Activity [4]: -27.06%
- GI50 (MDA-MB-435): 190 nM
- CC50 (MDA-MB-435): 670 nM
- GI50 (HCT-116): 460 nM
- CC50 (HCT-116): 18000 nM
- GI50 [5]: 1920 nM
- CC50 [5]: > 100000 nM
- GI50 [6]: 540 nM
- LC50 (concentration killing 50% of cells) [6]: 4670 nM
- GI50 [7]: 400 nM
- CC50 [7]: 3800 nM
- GI50 (U-251): 1540 nM
- LC50 (U-251): 5520 nM
- GI50 (NCI-H522): 1710 nM
- CC50 (NCI-H522): 8380 nM
- GI50 (COLO 205): 390 nM
- CC50 (COLO 205): 5050 nM
- GI50 [8]: 1230 nM
- CC50 [8]: 6120 nM
- GI50 (KM12): 2110 nM
- CC50 (KM12): > 100000 nM
- GI50 (SF-268): 870 nM
- CC50 (SF-268): > 100000 nM
- GI50 (M14): 480 nM
- CC50 (M14): 4510 nM
- GI50 (NCI-H322M): 400 nM
- CC50 (NCI-H322M): 5270 nM
- GI50 (SK-MEL-2): 1750 nM
- CC50 (SK-MEL-2): 8090 nM
- GI50 [9]: 1370 nM
- CC50 [9]: 5810 nM
- MIC (Staphylococcus aureus): 32 µg/mL
- GI50 (Malme-3M): 300 nM
- CC50 (Malme-3M): 3260 nM
- GI50 (SNB-75): 1430 nM
- CC50 (SNB-75): 5340 nM

SMILES: COc1ccc(-n2n[n+](C)c3c2C(=O)c2ccccc2C3=O)cc1OC.O=S(=O)([O-])C(F)(F)F
- GI50 (NCI-H23): 1060 nM
- CC50 (NCI-H23): > 100000 nM
- GI50 (SW-620): 1660 nM
- CC50 (SW-620): 8870 nM
- GI50 [1]: 1650 nM
- CC50 [1]: 5790 nM
- GI50 (NCI-H226): 1300 nM
- CC50 (NCI-H226): 6850 nM
- GI50 (SK-MEL-28): 1340 nM
- CC50 (SK-MEL-28): 6470 nM
- GI50 (HOP-62): 1230 nM
- CC50 (HOP-62): 5640 nM
- GI50 (HT-29): 550 nM
- LC50 (HT-29): 22200 nM
- GI50 [2]: 1110 nM
- CC50 ([2]; HCT-15, read-out: LC50 (the source's name)): 6060 nM
- GI50 (NCI-H460): 360 nM
- CC50 (NCI-H460): 8210 nM
- GI50 (SK-MEL-5): 160 nM
- LC50 (lethal concentration 50) (SK-MEL-5): 570 nM
- GI50 (SNB-19): 1140 nM
- LC50 (SNB-19): 4870 nM
- GI50 (A549): 400 nM
- CC50 (A549): 8970 nM
- GI50 [3]: 1140 nM
- Activity [4]: -31.51%
- GI50 (MDA-MB-435): 190 nM
- CC50 (MDA-MB-435): 640 nM
- GI50 (HCT-116): 1160 nM
- CC50 (HCT-116): 9530 nM
- GI50 [5]: 2270 nM
- CC50 [5]: 58800 nM
- GI50 [6]: 200 nM
- LC50 (concentration killing 50% of cells) [6]: 950 nM
- GI50 [7]: 500 nM
- CC50 [7]: 4080 nM
- GI50 (U-251): 1340 nM
- LC50 (U-251): 5110 nM
- GI50 (NCI-H522): 2000 nM
- CC50 (NCI-H522): 6860 nM
- GI50 (COLO 205): 310 nM
- CC50 (COLO 205): 5710 nM
- GI50 [8]: 1220 nM
- CC50 [8]: 5090 nM
- GI50 (KM12): 1380 nM
- CC50 (KM12): 7230 nM
- GI50 (SF-268): 1230 nM
- CC50 (SF-268): > 100000 nM
- GI50 (M14): 330 nM
- CC50 (M14): 3470 nM
- GI50 (NCI-H322M): 300 nM
- CC50 (NCI-H322M): 3340 nM
- GI50 (SK-MEL-2): 1400 nM
- CC50 (SK-MEL-2): 7370 nM
- GI50 [9]: 1490 nM
- CC50 [9]: 5340 nM
- MIC (Staphylococcus aureus): 4 µg/mL
- GI50 (Malme-3M): 210 nM
- CC50 (Malme-3M): 1880 nM
- GI50 (SNB-75): 820 nM
- CC50 (SNB-75): 4560 nM
